According to patent US11304956B2, “Use of 7-bromo-5-(O-chlorophenyl)-3-propoxy-1,2-dihydro-3H-1,4-benzodiazepin-2-one for inhibition of neuropathic pain and seizures of different etiology” (priority 2016, dated 2022):

Legend:
[1] = tested on: pentylenetetrazole-induced convulsions; assay: Pentylenetetrazole-induced seizures; format: in vivo, non-linear male mice; conditions: mice; subcutaneously; dose-effect relationship of the seizure agent
From the text: In many cases, the presence of anticonvulsant (antiepileptic) effect of the compounds correlates with analgesic properties on corresponding models of neuralgia. As a general step is a primary screening of new anticonvulsant compounds on rodents with the help of pentylenetetrazole test and MES (maximal electroshock seizures) as they have a qualitative difference in development and manifestations of seizures. It is believed that the compound ability to prevent the MES-induced seizures is connected with impulse spread inhibition throughout the central nervous system. It is believed that the ability to prevent the MES-induced seizures development indicates the potential efficacy of the compound in the preventing propagation of a pulse along the neural tissue (see Tompson E. Medicines. Bioscreening/Under the editorship of A. V. Stefanova.-K.: Avitsenna, 1998.—250 p.).
The experiments were performed on non-linear male mice weighing 19-29 g. Pentylenetetrazole was administered subcutaneously in the cervical region of the back. […]
For MES-induced seizures experimental animals were exposed to electric stimulation through the corneal electrodes (50 Hz, 50 mA for mice during 0.2 s). The number of animals with the maximum tonic extension of the hind limbs, which occurs in almost 100% of the animals in the control group, was calculated. […]

[2] = tested on: model of neuropathic pain in rats; assay: Model of neuropathic pain (sciatic nerve ligation), threshold of pain sensitivity by dolorimeter; format: in vivo, male Wistar rats; conditions: for Changes in the threshold of pain perception, regarding healthy limb: damaged vs healthy limb before administration (baseline); for Threshold of pain sensitivity, damaged limb / Threshold of pain sensitivity, healthy limb: day 14 after ligation, before administration (baseline), M±m, n=10; for Pain perception threshold changes, regarding pathology before administration of compounds / Threshold of pain sensitivity 2 hours after compounds administration: 2 hours; for Threshold of pain sensitivity 2 hours after compounds administration: damaged limb
Procedure: An evaluation of the antinociceptive action of the test compound (1) on a model of neuropathic pain was carried out on 50 male Wistar rats weighing 270-310 g. The model of neuropathic pain was reproduced by ligation of the sciatic nerve at the level of the upper third of the thigh at the level of the popliteal fossa higher than the site of its trifurcation by N. tibialis, N. peroneus and N. suralis (see Mironov A. N. et al. Guidelines for conducting preclinical studies of drugs. Part one.—Moscow 2012. p. 197-219). The development of the pathological process lasted 14 days. The degree of hyperalgesia was determined using a dolorimeter (Dolorimeter Baseline, USA) by determining the threshold of pain sensitivity (TPS)—the minimum pressure on the lower surface of the rat's foot (g/mm^2), which caused pain in the animal (vocalization and/or withdrawal of the foot). Each animal was given 5 attempts; the threshold value was taken with such a pressure force, which caused a positive response in at least one attempt. The threshold of pain sensitivity was compared on intact and damaged limbs on day 14 after ligation (pathology without treatment), as well as on the injured limb after 2 hours (peak of action) after the drugs administration. The test compound and the reference drug (ketorolac) were administered intragastrally (as gavage) once at doses of 0.5 and 3 mg/kg. Sciatic nerve ligation in animals caused the development of neuropathic pain syndrome, which manifested itself in behavioral reactions of the rat and lowering the threshold of pain sensitivity by an average of 44-48% (see Table 1). The analgesic effect of Compound 1 compared with ketorolac under the conditions of their intragastral administration on the model of neuropathic pain in rats (M±m, n=10, where n is the number of animals in the experiments) is shown in Table 1.

[3] = tested on: thermal tail flick test in rats; assay: Model of thermal stimulation (tail-flick); format: in vivo; conditions: n=10
From the text: The problem was solved by experimental study of the antinociceptive action of the test compound 1 on the model of NP in rats and on the model of pain with the participation of central mechanisms, in particular, thermal tail flick test in rats. Based on the available data on the positive response of constant pain to anticonvulsants in the acute and paroxysmal phase and considering structure 1, we performed an evaluation of the anticonvulsant action of the compound on models of pentamethylenetetrazol-induced convulsions and seizures caused by maximal electroshock (MES). We have taken into account the possible side reaction (ulcerogenic effect) of the compound in experimental animals, expressed in the formation of defects in the mucous membrane of the gastrointestinal tract or in provocation of already existing peptic ulcer relapses. The probability of ulcers formation of medicinal origin is especially high during administration of non-steroidal anti-inflammatory drugs in high doses and in combination with their long-term use in the form of tablets.
A more pronounced effect was after parenteral administration (see Table 2). Control: solvent (twin, distilled water, pH-corrector). Results of the study of Compound 1 and ketorolac analgesic effects on the model of thermal stimulation (tail-flick) as degree of pain sensitivity threshold increase in relation to the initial level (%), n=10, are given in Table 2.

[4] = according to the literature data for ketorolac; cited from earlier work
[5] = tested on: pentylenetetrazole-induced convulsions; conditions: literature data; interval in brackets; cited from earlier work
[6] = tested on: MES-induced seizures; conditions: literature data; interval in brackets; cited from earlier work
[7] = tested on: formalin test in mice; assay: Formalin test (licking time of the injected paw); format: in vivo, white male non-linear mice; conditions: 10.00 mg/kg intraperitoneally 40 min before formalin
[8] = tested on: carrageenan rat paw edema; assay: Carrageenan rat paw edema; format: in vivo, male white rats; conditions: 10.0 mg/kg intraperitoneally 40 min before carrageenan
From the text: Given the fact that Compound 1 affects not only the painful, but also the inflammatory phase, we undertook an in-depth study of its anti-inflammatory effect. The most common screening method of anti-inflammatory activity is the model of inflammatory edema of the rat hind paw, induced by the subplantar administration of various phlogogenic agents. Under the conditions of carrageenan administration, a sufficiently pronounced edema reaction is observed, which slowly develops and persists for a long time. The maximum size of edema is observed in 2-4 hours.
The anti-inflammatory properties of the test compounds were studied in the model of carrageenan rat paw edema. Male white rats weighing 150-180 g were used in the experiments. Before the administration of the experimental substances, the volumes of the rats' paws subsequently injected by phlogogen were measured. The test compounds and the reference drug—diclofenac-sodium, were administered intraperitoneally 40 minutes prior the inflammation induction. The control group of the rats received an equivalent amount of physiological solution in the emulsion with Tween-80. Acute aseptic inflammation was induced by a 1% aqueous solution of 0.1 ml)—carrageenan injection under plantar aponeurosis of the hind paw of animals of the experimental and control groups (see Trinus F. P. Nonsteroidal anti-inflammatory drugs/F. P. Trinus, N. A. Mohort, B. M. Klebanov//K., 1975, pp. 204-231., Winter C. A. Carrageenin—induced edema in hind paw of the rat as an assay for antiinflammatory drugs/C. A. Winter, E. A. Risley, G. V. Nuss//Proc. Soc. Exp. Biol. Med.—1962.—Vol. 111.—P. 544-547). The inflammatory reaction significance was evaluated after two and four hours after the phlogogen injection. Registration of edema size was carried out by mechanical measurement of foot volume in dynamics according to Zakharevsky A. S. (see Zaharevskiy A. S. The influence of some indole derivatives on the nervous system. Diss. cand. med. science/Zaharevskiy Aleksandr Stepanovich-Minsk.—1969.—78-80 p.). The edema extent was estimated according to the difference in volume between the swollen paw and the paw before inflammation induction. The anti-inflammatory efficacy of the test compounds was determined as the ability of the test compounds to suppress the inflammatory response in the experimental animals compared to the control animals and expressed as a percentage. The calculation was carried out according to the following formula:
The percentage of inflammation suppression=(ΔVκ−ΔV ? /ΔVκ)·100%,
where: ΔVκ—the average increase in the volume of the swollen paw in the control;
ΔV ? —the average increase in the volume of the swollen paw in animals injected by experimental substances.

## C1CCc2nnnn2CC1 [pentylenetetrazole, reference compound]
[1]
  ED95 of pentylenetetrazole (seizure agent): 120 mg/kg

## O=C(c1ccccc1)c1ccc2n1CCC2C(=O)O (stereo not drawn) [Ketorolac, ketorolac]
[2]; 0.5 mg/kg group
  Changes in the threshold of pain perception, regarding healthy limb: −47.3 ± 3.9%
  Threshold of pain sensitivity, damaged limb: 287.9 ± 19.85 g/mm^2
  Threshold of pain sensitivity, healthy limb: 550.0 ± 19.0 g/mm^2
[2]; 0.5 mg/kg intragastrally once
  Pain perception threshold changes, regarding pathology before administration of compounds: +24.6 ± 5.2%
  Threshold of pain sensitivity 2 hours after compounds administration: 355.0 ± 19.5 g/mm^2
[2]; 0.5 mg/kg intragastrally once, listed as ketorolac
  Pain perception threshold changes, regarding pathology before administration of compounds: +24.6%
[2]; 3 mg/kg group
  Changes in the threshold of pain perception, regarding healthy limb: −45.7 ± 3.5%
  Threshold of pain sensitivity, damaged limb: 296.4 ± 19.6 g/mm^2
  Threshold of pain sensitivity, healthy limb: 547.1 ± 15.1 g/mm^2
[2]; 3 mg/kg intragastrally once
  Pain perception threshold changes, regarding pathology before administration of compounds: +70.1 ± 6.2%
  Threshold of pain sensitivity 2 hours after compounds administration: 501.4 ± 34.9 g/mm^2
[2]; 3 mg/kg intragastrally once, listed as ketorolac
  Pain perception threshold changes, regarding pathology before administration of compounds: +70.1%
[3]; 0.5 mg/kg orally, 1 hour
  Degree of pain sensitivity threshold increase in relation to the initial level: +7.5%
[3]; 0.5 mg/kg orally, 2 hours
  Degree of pain sensitivity threshold increase in relation to the initial level: +14.6%
[3]; 0.5 mg/kg orally, 4 hours
  Degree of pain sensitivity threshold increase in relation to the initial level: +28.6%
[3]; 0.5 mg/kg orally, 6 hours
  Degree of pain sensitivity threshold increase in relation to the initial level: +12.1%
[3]; 3 mg/kg orally, 1 hour
  Degree of pain sensitivity threshold increase in relation to the initial level: +43.4%
[3]; 3 mg/kg orally, 2 hours
  Degree of pain sensitivity threshold increase in relation to the initial level: +75.7%
[3]; 3 mg/kg orally, 4 hours
  Degree of pain sensitivity threshold increase in relation to the initial level: +65.7%
[3]; 3 mg/kg orally, 6 hours
  Degree of pain sensitivity threshold increase in relation to the initial level: +28.1%
[4]
  ED50 (analgesic effect): 3 mg/kg

## CC(C)C[C@H](CN)CC(=O)O [Pregabalin, pregabalin]
[5]
  Anticonvulsive activity (ED50), Pentylenetetrazole: 31 (16-62) mg/kg
[6]
  Anticonvulsive activity (ED50), MES: 73 (57-93) mg/kg

## O=C(O)Cc1ccccc1Nc1c(Cl)cccc1Cl [Diclofenac-sodium, diclofenac-sodium, reference compound]
[7]; phase 0-5 min
  I phase, % effect (decrease in the time of licking of the paw): 51.00 ± 11.64 %
[7]; phase 15-40 min
  II phase, effect (decrease in the time of licking of the paw): 53.60 ± 11.02
[8]
  Inhibition of edema in 2 hours (%): 43.0 ± 7.0 %
  Inhibition of edema in 4 hours (%): 57.10 ± 8.3 %

## NCC1(CC(=O)O)CCCCC1 [Gabapentin, gabapentin]
[5]
  Anticonvulsive activity (ED50), Pentylenetetrazole: 32 (50-200) mg/kg
[6]
  Anticonvulsive activity (ED50), MES: 19 (16-24) mg/kg
